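A five-concentration, 48-hour dose response in 96-well plates underlies each endpoint, interpolated linearly between surrounding concentrations. TGI is the concentration that stops growth completely.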

Data on twelve molecules can be found in PubChem BioAssay (NCI).

One assay concerns A549 NSCLC. Nature of the assay: NCI anticancer screen, dose series, 48 h.
With `CSc1ncnc2c1cnn2CCCCO`, the TGI was above 100 µM.
The molecule `COc1ccc(OC)c(C2Cc3cnc4nc(N)nc(N)c4c3C2)c1` (stereo not given) had a TGI above 100 µM.
`CC(=O)Nc1ccc2cc(C)c(=O)[nH]c2n1` came in with a TGI above 100 µM.
Same read-out and setting: the same measure for `CCOC(=O)c1ccc(C(=O)/C(C#N)=C2\CCCN2C)[nH]1`: above 100 µM; for `Oc1ccc(-c2nc(-c3ccc(F)cc3)c(-c3ccc4ccccc4n3)[nH]2)cc1`: 27 µM.
Still for that read-out and setting: the same measure for `C[C@@]12CCC3C1C=C1C(=O)c4cc(O)ccc4C(=O)[C@]1(O2)[C@@]3(C)C=O`: 27.2 µM.
Still for that read-out and setting: the same measure for `CC(C)C[C@H]1[C@@H](OCc2ccccc2)COS(=O)N1[C@H](C)c1ccccc1` (stereo not given in full): above 100 µM; for `CC1(C)OC2C(O)CN3CCS[C@H]3C2O1` (stereo not given in full): above 100 µM; for `CC1(C)OC(=C(C#N)C#N)C(C#N)=C1/C=C/c1ccncc1`: 34.1 µM.
Regarding `O=S(=O)(O)c1ccc(N=Nc2ccc(N=Nc3c(O)ccc4ccccc34)cc2)cc1`, the TGI was above 100 µM.

For another assay, the system named is BT-549 breast. Nature of the assay: NCI anticancer screen, dose series, 48 h.
For `CSc1ncnc2c1cnn2CCCCO`, the TGI was above 100 µM.
The same measure, in the same setting: as for `COc1ccc(OC)c(C2Cc3cnc4nc(N)nc(N)c4c3C2)c1` (stereo not given), the figure is 52.6 µM; as for `COc1cc2c3c(c4cc(OC)c(OC)cc4c2cc1OC)C(=O)C1CCC(=O)N1C3` (stereo not given), above 100 µM.
Same read-out and setting: as for `CC(=O)Nc1ccc2cc(C)c(=O)[nH]c2n1`, the figure is above 100 µM; as for `CCOC(=O)c1ccc(C(=O)/C(C#N)=C2\CCCN2C)[nH]1`, above 100 µM; as for `CN1CCN(CN2C(=O)C3C4C=CC(C3C2=O)C2C(=O)N(CN3CCN(C)CC3)C(=O)C42)CC1` (stereo not given), above 100 µM.
For the molecule `Oc1ccc(-c2nc(-c3ccc(F)cc3)c(-c3ccc4ccccc4n3)[nH]2)cc1`, the TGI amounted to 36.6 µM.
Same read-out and setting: the same measure for `C[C@@]12CCC3C1C=C1C(=O)c4cc(O)ccc4C(=O)[C@]1(O2)[C@@]3(C)C=O`: 8.69 µM; for `CC(C)C[C@H]1[C@@H](OCc2ccccc2)COS(=O)N1[C@H](C)c1ccccc1` (stereo not given in full): above 100 µM.
For `CC1(C)OC2C(O)CN3CCS[C@H]3C2O1` (stereo not given in full), the TGI was above 100 µM.
Still for that read-out and setting: as for `CC1(C)OC(=C(C#N)C#N)C(C#N)=C1/C=C/c1ccncc1`, the figure is 3.18 µM; as for `O=S(=O)(O)c1ccc(N=Nc2ccc(N=Nc3c(O)ccc4ccccc34)cc2)cc1`, above 100 µM.

The subject of another assay is DU-145 prostate. Nature of the assay: NCI anticancer screen, dose series, 48 h.
The molecule `CSc1ncnc2c1cnn2CCCCO` showed a TGI above 100 µM.
The same measure, in the same setting: the same measure for `COc1ccc(OC)c(C2Cc3cnc4nc(N)nc(N)c4c3C2)c1` (stereo not given): 55.7 µM; for `COc1cc2c3c(c4cc(OC)c(OC)cc4c2cc1OC)C(=O)C1CCC(=O)N1C3` (stereo not given): above 100 µM; for `CC(=O)Nc1ccc2cc(C)c(=O)[nH]c2n1`: above 100 µM.
The same measure, in the same setting: as for `CCOC(=O)c1ccc(C(=O)/C(C#N)=C2\CCCN2C)[nH]1`, the figure is above 100 µM.
`CN1CCN(CN2C(=O)C3C4C=CC(C3C2=O)C2C(=O)N(CN3CCN(C)CC3)C(=O)C42)CC1` (stereo not given) had a TGI above 31.6 µM.
Same read-out and setting: the same measure for `Oc1ccc(-c2nc(-c3ccc(F)cc3)c(-c3ccc4ccccc4n3)[nH]2)cc1`: 34.8 µM.
The same measure, in the same setting: as for `C[C@@]12CCC3C1C=C1C(=O)c4cc(O)ccc4C(=O)[C@]1(O2)[C@@]3(C)C=O`, the figure is 11.3 µM; as for `CC(C)C[C@H]1[C@@H](OCc2ccccc2)COS(=O)N1[C@H](C)c1ccccc1` (stereo not given in full), above 100 µM; as for `CC1(C)OC2C(O)CN3CCS[C@H]3C2O1` (stereo not given in full), above 100 µM.
In turn, `CC1(C)OC(=C(C#N)C#N)C(C#N)=C1/C=C/c1ccncc1` displayed a TGI of 6.21 µM.
The same measure, in the same setting: as for `O=S(=O)(O)c1ccc(N=Nc2ccc(N=Nc3c(O)ccc4ccccc34)cc2)cc1`, the figure is above 100 µM.

A further assay deals with HL-60(TB) leukemia. The assay is described as follows: NCI anticancer screen, dose series, 48 h.
The molecule `CSc1ncnc2c1cnn2CCCCO` returned a TGI above 100 µM.
Same read-out and setting: the same measure for `COc1ccc(OC)c(C2Cc3cnc4nc(N)nc(N)c4c3C2)c1` (stereo not given): 40 µM; for `COc1cc2c3c(c4cc(OC)c(OC)cc4c2cc1OC)C(=O)C1CCC(=O)N1C3` (stereo not given): above 100 µM.
As for `CC(=O)Nc1ccc2cc(C)c(=O)[nH]c2n1`, the TGI is above 100 µM.
In turn, `CCOC(=O)c1ccc(C(=O)/C(C#N)=C2\CCCN2C)[nH]1` came in with a TGI above 100 µM.
Still for that read-out and setting: the same measure for `CN1CCN(CN2C(=O)C3C4C=CC(C3C2=O)C2C(=O)N(CN3CCN(C)CC3)C(=O)C42)CC1` (stereo not given): 61.6 µM.
Still for that read-out and setting: the same measure for `Oc1ccc(-c2nc(-c3ccc(F)cc3)c(-c3ccc4ccccc4n3)[nH]2)cc1`: above 100 µM.
Same read-out and setting: as for `C[C@@]12CCC3C1C=C1C(=O)c4cc(O)ccc4C(=O)[C@]1(O2)[C@@]3(C)C=O`, the figure is 3.88 µM; as for `CC(C)C[C@H]1[C@@H](OCc2ccccc2)COS(=O)N1[C@H](C)c1ccccc1` (stereo not given in full), 51.7 µM; as for `CC1(C)OC2C(O)CN3CCS[C@H]3C2O1` (stereo not given in full), above 100 µM.
`O=S(=O)(O)c1ccc(N=Nc2ccc(N=Nc3c(O)ccc4ccccc34)cc2)cc1` had a TGI above 100 µM.

The next assay has as its system HS 578T breast. Nature of the assay: NCI anticancer screen, dose series, 48 h.
With `CSc1ncnc2c1cnn2CCCCO`, the TGI was above 100 µM.
On the same count and under the same terms, the same measure for `COc1ccc(OC)c(C2Cc3cnc4nc(N)nc(N)c4c3C2)c1` (stereo not given): above 100 µM; for `COc1cc2c3c(c4cc(OC)c(OC)cc4c2cc1OC)C(=O)C1CCC(=O)N1C3` (stereo not given): above 100 µM; for `CC(=O)Nc1ccc2cc(C)c(=O)[nH]c2n1`: above 100 µM.
`CCOC(=O)c1ccc(C(=O)/C(C#N)=C2\CCCN2C)[nH]1` showed a TGI above 100 µM.
`CN1CCN(CN2C(=O)C3C4C=CC(C3C2=O)C2C(=O)N(CN3CCN(C)CC3)C(=O)C42)CC1` (stereo not given) yielded a TGI above 100 µM.
`Oc1ccc(-c2nc(-c3ccc(F)cc3)c(-c3ccc4ccccc4n3)[nH]2)cc1` came in with a TGI of 28.6 µM.
`C[C@@]12CCC3C1C=C1C(=O)c4cc(O)ccc4C(=O)[C@]1(O2)[C@@]3(C)C=O` came in with a TGI of 75 µM.
As for `CC(C)C[C@H]1[C@@H](OCc2ccccc2)COS(=O)N1[C@H](C)c1ccccc1` (stereo not given in full), the TGI is 38.6 µM.
As for `CC1(C)OC2C(O)CN3CCS[C@H]3C2O1` (stereo not given in full), the TGI was above 100 µM.
